The values below are quoted from earlier work in patent publication US20180125916A1, “System and Method for Natural Hair Loss Prevention Oil” (priority 2016, published 2018).

This series relates to male pattern baldness.

Consider `Nc1cc(N2CCCCC2)nc(N)[n+]1[O-]` [Minoxidil], for which the shedding on use result (first 2 months of use) is “can cause shedding in the first 2 months of use”. Also, the “itching as a side effect” value (in vivo) is listed as “high likelihood of a considerable itching”.
Turning to `CC(C)(C)NC(=O)[C@H]1CC[C@H]2[C@@H]3CC[C@H]4NC(=O)C=C[C@]4(C)[C@H]3CC[C@]12C` [Finasteride], under “administered orally”, the “sexual dysfunction side effect” value is reported as “known to cause permanent sexual dysfunction”.
